Source: patent EP0908457B1, “3-(1,2-benzisothiazol- and isoxazol-5-Y1)-2,4(1H,3H)-pyrimidinedione or thione and 3-(1,2-benzisothiazol- and isoxazol-5-y1)-4(3H)-pyrimidinone or thione herbicidal agents” (BASF AKTIENGESELLSCHAFT, priority 1997, dated 1999)

Tests used:
[1] = test system: Echinochloa oryzoides (Ard.) Fritsch.; test: Preemergence weed control under flooded paddy conditions, ECHORC (Watergrass (Calif.)); assay type: in vivo; details: preemergence, flooded paddy, rated 3-4 weeks after treatment
Cyperus iria = test: Preemergence weed control under flooded paddy conditions, CYPIR (Rice Flatsedge); assay type: in vivo; details: preemergence, flooded paddy, rated 3-4 weeks after treatment
[2] = test system: Cyperus serotinus, Rottb.; test: Preemergence weed control under flooded paddy conditions, CYPSE (Flatsedge); assay type: in vivo; details: preemergence, rated 3-4 weeks after treatment
[3] = test system: Monochoria vaginalis, Presl.; test: Preemergence weed control under flooded paddy conditions, MOOVA (Monochoria); assay type: in vivo; details: preemergence, flooded paddy, rated 3-4 weeks after treatment
Sagittaria pygmaea, L. = test: Preemergence weed control under flooded paddy conditions, SAGPY (Arrowhead (Pygmaea)); assay type: in vivo; details: preemergence, flooded paddy, rated 3-4 weeks after treatment
[4] = test system: Oryza sativa, (L.) Tebonnet; test: Rice tolerance to post-transplant applications under flooded paddy conditions (Example 187), ORYSAT (Rice, Tebonnet); details: rated 3-4 weeks after treatment
Note: meaning of each grade not given here.

| SMILES | herbicidal effect rating, ECHORC ([1]; Rate 0.0620 kg/ha) | herbicidal effect rating, ECHORC ([1]; Rate 0.1250 kg/ha) | herbicidal effect rating, ECHORC ([1]; Rate 0.2500 kg/ha) | herbicidal effect rating, ECHORC ([1]; Rate 0.5000 kg/ha) | herbicidal effect rating, CYPIR (Cyperus iria; Rate 0.0620 kg/ha) | herbicidal effect rating, CYPIR (Cyperus iria; Rate 0.1250 kg/ha) | herbicidal effect rating, CYPIR (Cyperus iria; Rate 0.2500 kg/ha) | herbicidal effect rating, CYPIR (Cyperus iria; Rate 0.5000 kg/ha) | herbicidal effect rating, CYPSE ([2]; Rate 0.1250 kg/ha) | herbicidal effect rating, CYPSE ([2]; Rate 0.2500 kg/ha) | herbicidal effect rating, CYPSE ([2]; Rate 0.5000 kg/ha) | herbicidal effect rating, MOOVA ([3]; Rate 0.0620 kg/ha) | herbicidal effect rating, MOOVA ([3]; Rate 0.1250 kg/ha) | herbicidal effect rating, MOOVA ([3]; Rate 0.2500 kg/ha) | herbicidal effect rating, MOOVA ([3]; Rate 0.5000 kg/ha) | herbicidal effect rating, SAGPY (Sagittaria pygmaea, L.; Rate 0.0620 kg/ha) | herbicidal effect rating, SAGPY (Sagittaria pygmaea, L.; Rate 0.1250 kg/ha) | herbicidal effect rating, SAGPY (Sagittaria pygmaea, L.; Rate 0.2500 kg/ha) | herbicidal effect rating, SAGPY (Sagittaria pygmaea, L.; Rate 0.5000 kg/ha) | herbicidal effect rating ORYSAT ([4]; Rate 0.0620 kg/ha) | further results |
| --- | --- | --- | --- | --- | --- | --- | --- | --- | --- | --- | --- | --- | --- | --- | --- | --- | --- | --- | --- | --- | --- |
| Cn1c(C(F)(F)F)cc(=O)n(-c2ccc3snc(-c4ccccc4OCC(N)=O)c3c2)c1=O [Example 548, Acetamide, 2-{o-{5-[3,6-dihydro-3-methyl-2,6-dioxo-4-(trifluoromethyl)-1(2H)-pyrimidinyl]-1,2-benzisothiazol-3-yl}phenoxy}-] | 3.7 | 4.9 | 9.0 | 6.0 | 6.0 | 8.0 | 9.0 | 0.0 | 9.0 | 9.0 | 9.0 | 9.0 | 9.0 | 9.0 | 9.0 | 0.0 | 2.0 | 4.0 | 0.0 | 2.0 | herbicidal effect rating, ECHORC ([1]; Rate 0.0320 kg/ha): 2.9; herbicidal effect rating, CYPIR (Cyperus iria; Rate 0.0320 kg/ha): 2.0; herbicidal effect rating, CYPSE ([2]; Rate 0.0620 kg/ha): 9.0; herbicidal effect rating, MOOVA ([3]; Rate 0.0320 kg/ha): 8.0; herbicidal effect rating, SAGPY (Sagittaria pygmaea, L.; Rate 0.0320 kg/ha): 0.0; herbicidal effect rating ORYSAT ([4]; Rate 0.0320 kg/ha): 3.0; herbicidal effect rating ORYSAT ([4]; Rate 0.1250 kg/ha): 4.0; herbicidal effect rating ORYSAT ([4]; Rate 0.2500 kg/ha): 6.0; herbicidal effect rating ORYSAT ([4]; Rate 0.5000 kg/ha): 4.0 |
| Cn1c(C(F)(F)F)cc(=O)n(-c2ccc3snc(-c4ccccc4OCC(=O)C(C)(C)C)c3c2)c1=O [Example 549, 2,4(1H,3H)-Pyrimidinedione, 3-{3-[o-(3,3-dimethyl-2-oxobutoxy)phenyl)-1,2-benzisothiazol-5-yl}-1-methyl-6-(trifluoromethyl)-] | 3.6 | 5.1 | 9.0 | 9.0 | 9.0 | 9.0 | 9.0 | 9.0 | 2.0 | 9.0 | 9.0 | 9.0 | 9.0 | 9.0 | 9.0 | 0.0 | 4.0 | 4.0 | 0.0 | 4.0 | herbicidal effect rating, ECHORC ([1]; Rate 0.0320 kg/ha): 3.0; herbicidal effect rating, CYPIR (Cyperus iria; Rate 0.0320 kg/ha): 7.0; herbicidal effect rating, CYPSE ([2]; Rate 0.0320 kg/ha): 0.0; herbicidal effect rating, CYPSE ([2]; Rate 0.0620 kg/ha): 0.0; herbicidal effect rating, MOOVA ([3]; Rate 0.0320 kg/ha): 9.0; herbicidal effect rating, SAGPY (Sagittaria pygmaea, L.; Rate 0.0320 kg/ha): 0.0; herbicidal effect rating ORYSAT ([4]; Rate 0.0320 kg/ha): 4.0; herbicidal effect rating ORYSAT ([4]; Rate 0.1250 kg/ha): 4.0; herbicidal effect rating ORYSAT ([4]; Rate 0.2500 kg/ha): 4.0; herbicidal effect rating ORYSAT ([4]; Rate 0.5000 kg/ha): 2.0 |
| Cc1ccc(C(=O)C(C)Oc2ccccc2-c2nsc3ccc(-n4c(=O)cc(C(F)(F)F)n(C)c4=O)cc23)cc1C (stereo not shown) [Example 550, 2,4(1H,3H)-Pyrimidinedione, 3-{-3-{o-[1-(3,4-dimethylbenzoyl)ethoxy]phenyl}-1,2-benzisothiazol-5-yl]-1-methyl-6-(trifluoromethyl)-] | 5.9 | 5.9 | 9.0 | 9.0 | 8.0 | 8.0 | 7.0 | 5.0 | 0.0 | 0.0 | 9.0 | 9.0 | 9.0 | 9.0 | 9.0 | 0.0 | 0.0 | 0.0 | 0.0 | 0.0 | herbicidal effect rating, ECHORC ([1]; Rate 0.0320 kg/ha): 4.7; herbicidal effect rating, CYPIR (Cyperus iria; Rate 0.0320 kg/ha): 2.0; herbicidal effect rating, CYPSE ([2]; Rate 0.0320 kg/ha): 0.0; herbicidal effect rating, CYPSE ([2]; Rate 0.0620 kg/ha): 0.0; herbicidal effect rating, MOOVA ([3]; Rate 0.0320 kg/ha): 9.0; herbicidal effect rating, SAGPY (Sagittaria pygmaea, L.; Rate 0.0320 kg/ha): 0.0; herbicidal effect rating ORYSAT ([4]; Rate 0.0320 kg/ha): 0.0; herbicidal effect rating ORYSAT ([4]; Rate 0.1250 kg/ha): 0.0; herbicidal effect rating ORYSAT ([4]; Rate 0.2500 kg/ha): 0.0; herbicidal effect rating ORYSAT ([4]; Rate 0.5000 kg/ha): 0.0 |
| CC(Oc1ccccc1-c1nsc2ccc(-n3c(=O)cc(C(F)(F)F)n(C)c3=O)cc12)C(=O)N(C)C (stereo not shown) [Example 551, Propionamide, 2-{o-{5-[3,6-dihydro-3-methyl-2,6-dioxo-4-(trifluoromethyl)-1(2H)-pyrimidinyl]-1,2-benzisothiazol-3-yl}phenoxy}-N,N-dimethyl-] | 4.0 | 7.0 | 7.0 | 9.0 | 0.0 | 0.0 | 2.0 | 9.0 | 0.0 | 0.0 | 0.0 | 0.0 | 9.0 | 9.0 | 9.0 | 0.0 | 0.0 | 0.0 | 2.0 | 0.0 | herbicidal effect rating, CYPSE ([2]; Rate 0.0620 kg/ha): 0.0; herbicidal effect rating ORYSAT ([4]; Rate 0.1250 kg/ha): 3.0; herbicidal effect rating ORYSAT ([4]; Rate 0.2500 kg/ha): 3.0; herbicidal effect rating ORYSAT ([4]; Rate 0.5000 kg/ha): 4.0 |
| CCCS(=O)(=O)NC(=O)COc1ccc(C)cc1-c1nsc2ccc(-n3c(=O)cc(C(F)(F)F)n(C)c3=O)cc12 [Example 552, Acetamide, 2-{{2-{5-[3,6-dihydro-3-methyl-2,6-dioxo-4-(trifluoromethyl)-1(2H)-pyrimidinyl]-1,2-benzisothiazol-3-yl}-p-tolyl}oxy}-N-(propylsulfonyl)-] | 3.7 | 4.7 | 9.0 | 9.0 | 8.0 | 7.0 | 9.0 | 9.0 | 4.0 | 9.0 | 9.0 | 8.0 | 9.0 | 9.0 | 9.0 | 0.0 | 0.0 | 0.0 | 5.0 | 6.0 | herbicidal effect rating, ECHORC ([1]; Rate 0.0320 kg/ha): 2.6; herbicidal effect rating, CYPIR (Cyperus iria; Rate 0.0320 kg/ha): 6.0; herbicidal effect rating, CYPSE ([2]; Rate 0.0320 kg/ha): 0.0; herbicidal effect rating, MOOVA ([3]; Rate 0.0320 kg/ha): 6.0; herbicidal effect rating, SAGPY (Sagittaria pygmaea, L.; Rate 0.0320 kg/ha): 0.0; herbicidal effect rating ORYSAT ([4]; Rate 0.0320 kg/ha): 4.0; herbicidal effect rating ORYSAT ([4]; Rate 0.1250 kg/ha): 6.0; herbicidal effect rating ORYSAT ([4]; Rate 0.2500 kg/ha): 7.0; herbicidal effect rating ORYSAT ([4]; Rate 0.5000 kg/ha): 4.0 |
